These results are taken from a melting point compilation (Tetko et al.; mined from patent text by program, amines drawn as free bases though some values may be those of a salt).

Non-standard residues stand in square brackets, D forms with d. Residues, ends and D or L forms follow the SMILES beside them. ξ: configuration not given here. *: point of attachment. Cbz = O=C(OCc1ccccc1)*; Boc = CC(C)(C)OC(=O)*; Aib = CC(C)(N)C(=O)O; ξDap = NCC(N)C(=O)O

Broadly, the melting point is the temperature, or range, at which the solid turns liquid.

The molecule `O=C1CCC(CCN2CCN(c3ccccn3)CC2)CC1` returned a melting point of 104 to 106 °C.
Regarding `FC(F)(F)c1cc(Cl)c(-n2cc(C3CC3(Br)Br)nn2)c(Cl)c1` (stereo not drawn), the melting point was 156 to 158 °C.
The result for `CCCCCCCCCCCCS(=O)(=O)c1ccc2c(c1)C(=O)c1c(c(O)c3ccccc3c1O)C2=O` reads 185 to 186 °C; that for `CC(C)(C)c1cccc(C[C@H](N)[C@H](O)c2cccc(Cl)c2)c1` (racemic), 102 to 103 °C.
In turn, `CC12CCC3C(CCC4CC(=O)CCC43C)C1CCC2C#N` (stereo not drawn) had a melting point of 150 to 152 °C.
On to `Cc1sc(-c2ccccc2)nc1CCOc1ccc([N+](=O)[O-])cn1`, for which the melting point was 131 to 132 °C.
Take `N#Cc1ncc(F)cc1OC1SCC(O)C(O)C1O` (stereo not drawn): the melting point stood at 94 °C.
Turning to `O=C(COc1ccccc1)NC1C(=O)NC1SCC(=O)C1CCCS1` (mixture of isomers), the melting point was determined as 123 °C.
As to `O=C1Cc2cc3c(CCC4CCN(Cc5ccccc5)CC4)noc3cc2N1`, the melting point is 118 to 119 °C.
`N#CC(C#N)=C1N(CCCCN2CCCCC2)CCN1CCCN1CCCCC1` displayed a melting point of 88 to 90 °C.
In turn, `CC=C(NC(=O)C1CC1(Cl)Cl)C(=O)O` (stereo not drawn) registered a melting point of 188 to 190 °C.
In the case of `COC(=O)c1cncn1C1CCCc2ccccc21` (stereo not drawn) it was 63 °C; in that of `CCOC(=O)c1cccc2c1CCCC2C(N)=O` (stereo not drawn), 160 to 162 °C; in that of `CC(CCC(=O)O)C(=O)N1c2ccccc2CCC1C(=O)O` (stereo not drawn), 117 to 119 °C.
Turning to `CCOC(=O)C1=C(C)NC(c2cscn2)=NC1c1cccc(OC)c1` (stereo not drawn), the melting point lay in the range of 140 to 142 °C.
Regarding `O=C(Cc1ccc(CN2CCC(=O)C(C(c3ccccc3)c3ccccc3)C2)cc1)OCC(=O)c1ccccc1` (stereo not drawn), the melting point fell in the range of 99 to 110 °C.
Molecule `O=C(Cc1ccccn1)c1ccccc1[NH+]([O-])C(=O)c1ccccc1` (stereo not drawn) displayed a melting point of 192 to 194 °C.
The result for `CC(=O)OCc1c(C(=O)C(=O)O)c2cc(OCc3ccccc3)ccc2n1Cc1ccc(C(C)(C)C)cc1` reads 145 to 146 °C; that for `O=C(NCCCN1CCOCC1)Nc1nc2ccc(OCc3c(Cl)cccc3Cl)cc2s1`, 162 to 166 °C; that for `C[C@@H]1S[C@@H](C(=O)N(C)c2ccc(CN3CCOCC3)cc2)Cc2cc3c(cc2C1=O)OCO3`, 162 to 165 °C.
In the case of `COc1ccc(C(C)C)cc1-c1cc(C(=O)NC2CCN(C(=O)OC(C)(C)C)C2)c(OCc2ccccc2)cc1OCc1ccccc1` (stereo not drawn), the melting point lay in the range of 151 to 154 °C.
In the case of `C[C@H](C(=O)N[C@H](CO)Cc1ccccc1)c1ccc(NS(C)(=O)=O)c(F)c1` it was 150 to 153 °C.
`O=c1[nH]c2cc(-c3ccccc3)nnc2c2ccccc12` had a melting point of 340 to 342 °C.
Consider `O=C(O)CC1(CC(=O)O)c2ccccc2C(=O)c2ccccc21`, for which the melting point lay in the range of 230 to 232 °C.
For the molecule `CC(Oc1ccc(Oc2ncc(Cl)cc2Cl)cc1)C(=O)N1CCCO1` (stereo not drawn), the melting point fell in the range of 106 to 108 °C.
Molecule `N#Cc1ccc(N(Cc2ccc(OS(N)(=O)=O)c(Br)c2)n2cnnc2)cc1-c1cc2ccccc2o1` came in with a melting point of 199 to 200 °C.
`COc1ncnc2cc(Br)sc12` registered a melting point of 111 to 113 °C.
As for `O=C(Nc1nc(=O)c2cnn3c2n1CC=C3c1cccc(C(F)(F)F)c1)c1ccccc1`, the melting point lay in the range of 235 to 239 °C.
In the case of `CCCn1cc2c(C3(F)C(=O)Nc4ccc(Br)cc43)ncnc2n1` (stereo not drawn) it was 184 to 186 °C; in that of `COC(=O)C(CNC(=O)OC(C)(C)C)NC(=O)C(C)(C)NC(=O)OCc1ccccc1` (stereo not drawn) (Cbz-[Aib]-[ξDap](Boc)-OMe), 100 to 101 °C.
In the case of `COC(=O)c1ccc(N)cc1S(=O)(=O)NC(C)(C)C` it was 198 to 199 °C.
The result for `Cn1ncc(/C=C/C(=O)Nc2ccc(OCc3cscn3)cc2)c1-c1ccc(F)cc1` reads 171 to 172 °C.
For the molecule `Cc1ccc(Cc2cnc(NCCCCc3ncc(Cl)cc3C)[nH]c2=O)cn1`, the melting point was in the range of 140 to 141 °C.
In turn, `CCCC=Cc1c(C(C)C)nc(C(C)C)c(CO)c1-c1cccc(OC)c1` registered a melting point of 71 to 75 °C.
`O=c1cc(C(F)(F)F)c2ccc(NCc3ccccc3)cc2o1` showed a melting point of 136 to 137 °C.
Molecule `CC(C)CC(C(=O)OCc1ccc([N+](=O)[O-])cc1)N(C(=O)OC(C)(C)C)C1CC1` (stereo not drawn) displayed a melting point of 139 to 143 °C.
In turn, `Nc1ccc(Cc2n[nH]c(=O)o2)cc1` had a melting point of 267 to 268 °C.
Take `O=C(NC(O)C(Cl)(Cl)Cl)c1cc([N+](=O)[O-])ccc1O` (stereo not drawn): the melting point fell in the range of 223 to 225 °C.
Regarding `CCOc1cc(CO)ccc1OCc1nc(-c2ccco2)oc1C`, the melting point is 141 to 142 °C.
In turn, `O=C(NCc1ccccn1)c1nc(-c2ccccc2)c(-c2ccc(=O)[nH]n2)s1` yielded a melting point of 221 to 222 °C.
As to `CC(C)(C)[Si](C)(C)Oc1ccc2c(ccc3c4ccc(O[Si](C)(C)C(C)(C)C)cc4oc(=O)c23)c1`, the melting point is 154 to 156 °C.
Regarding `Cc1cc(S)c(C)c(C)c1O`, the melting point worked out at 86 °C.
In turn, `C=C(CC(=O)Nc1cccc(/C=C/c2nc(C3CCCCC3)cs2)c1)C(=O)O` yielded a melting point of 187 to 189 °C.
Molecule `CCOc1cc2c(cc1Cc1ccc3c(c1)OCO3)OCO2` registered a melting point of 44 °C.
The result for `CCN(CC)CCN1CCN(Cc2ccc(O)cc2)C(c2ccccc2)C1` (stereo not drawn) reads 108 to 112 °C; that for `Cc1cccc(-c2nc(-c3cccc(C)c3)nc(-c3cccc(C)c3)n2)c1`, 151 to 152 °C; that for `C=Cc1ccc2c(c1)C[C@H](C(=O)N1CCC[C@H](C)C1)N2c1cccnn1`, 206 to 209 °C.
As for `c1ccc(COc2cccc(CSc3nc4cnccc4[nH]3)c2)cc1`, the melting point was 161 to 164 °C.
Molecule `COc1cc(C=CC(=O)C(C)C(=O)C=Cc2ccc(O)c(OC)c2)ccc1O` (stereo not drawn) returned a melting point of 180 to 183 °C.
`CSc1nc2c(OCc3ccccc3)cccc2n1CCCO`: the melting point lay within 106 to 107 °C.
As for `COC(=O)[C@H](Cc1ccc(CC(=O)O)c(C2SCCS2)c1)NC(C)=O`, the melting point was 113 to 119 °C.
In the case of `COc1ccc(-c2cc(OCc3ccccc3)c(=O)n(C)c2-c2ccncc2)cc1` it was 127 to 130 °C; in that of `CC(C)CON(Cc1ccc(F)cc1)C(=O)C1=C(O)C(=O)N(C)C1`, 96 to 97 °C; in that of `Cc1c(-c2ccccc2)c(N2CC[C@H](N(C)C)C2)c2oc(N3CC(CC(=O)O)C3)nc2c1C#N`, 125 to 128 °C.
The molecule `Cn1cc(S(C)(=O)=O)c(=O)c2ccc(C(F)(F)F)cc21` showed a melting point of 300 to 301 °C.
Take `CCCCNS(=O)(=O)c1ccc(N2CCC(NC[C@H](O)COc3cccc4[nH]c5ccccc5c34)CC2)cc1`: the melting point lay within 166 to 179 °C.
On to `Cn1c(Br)c(Br)c(Br)c1C#N`, for which the melting point is 115 to 119 °C.
The result for `CC#Cc1ccc(NC(=O)c2cccnc2Cl)cc1` reads 136 to 138 °C; that for `CC(C)Nc1cc2c(cc1C(=O)c1ccccc1)OCO2`, 77 to 78 °C.
In the case of `CC(C(N)=O)c1ccc(N)cc1` (stereo not drawn) it was 120 to 122 °C.
In the case of `CNC(=O)c1ccc2[nH]ccc2c1` it was 140 to 141 °C; in that of `COc1ccc(Nc2nc3ccccc3c(=O)[nH]2)c(C)c1`, 270 to 272 °C; in that of `N#Cc1ncn2c1N(C(=O)CN1CCN(C(c3ccccc3)c3ccc(Cl)cc3)CC1)CC=C2c1cccc(C(F)(F)F)c1` (stereo not drawn), 105 to 107 °C.
As to `C=C1CCCCCCCSC[C@@H](C(=O)OCC)NC1=O`, the melting point lay within 146 to 147 °C.
Turning to `O=C(CCc1ccccc1)N[C@H](Cc1ccc(C(F)(F)F)cc1)[C@@H](O)c1ccccc1` (racemic), the melting point was in the range of 147 to 148 °C.
As for `Cc1cc2c(Oc3cccc(C(F)(F)F)c3)nc(OCC(F)(F)F)nc2s1`, the melting point lay in the range of 124 to 125 °C.
Turning to `COC1(c2cccc(OCc3ccc(-n4ccnc4C)cc3)c2)CCOCC1`, the melting point fell in the range of 136 to 137 °C.
Molecule `CC1(C#N)CN(C(c2ccccc2)c2ccccc2)C1` showed a melting point of 78 to 80 °C.
`COc1c(C=O)c(=O)n(C)c(=O)n1C` had a melting point of 105 to 107 °C.
In turn, `OCCCc1ccc2ccccc2c1O` gave a melting point of 85 to 86 °C.
Regarding `N#CC(C#N)=C1Sc2nc3ccc(C(F)(F)F)cc3nc2S1`, the melting point lay within 197 to 199 °C.
In turn, `Cc1cccc(NC(=O)NC2N=C(CC(C)C)c3cccc(C)c3N(CC(=O)C3CCCCC3)C2=O)c1` (stereo not drawn) displayed a melting point of 152 to 155 °C.
`C#CC1(O)CCc2c(OC)ccc(OC)c2C1` (stereo not drawn) displayed a melting point of 103 to 105 °C.
`CCC(C)c1nn(-c2ccc(C(F)(F)F)cn2)cc1C=O` (stereo not drawn): the melting point was in the range of 82 to 83 °C.
As to `Cc1nc2cnccc2n1-c1ccc(Cn2c(=O)oc3ccccc32)cc1`, the melting point was 84 to 87 °C.
In the case of `CNC(=O)CCCCN1CCC(C(O)(c2ccc(F)cc2)c2ccc(F)cc2)CC1` it was 130 to 131 °C.
In turn, `Cc1sc(N)c(C(=O)c2ccc(Cl)cc2)c1C` registered a melting point of 122 to 123 °C.
Molecule `COCCn1c2cc(CCO)c(OC)cc2c2c3c(c(-c4ccccc4Cl)cc21)C(=O)NC3=O` yielded a melting point of 271 to 273 °C.
Turning to `COc1ccc(C(C(Br)c2ccc(F)cc2)C(F)(F)F)cc1` (stereo not drawn), the melting point was in the range of 73 to 94 °C.
Molecule `FCc1cccc(C#CCCn2cc(-c3ccc(F)cc3)nn2)n1` registered a melting point of 100 to 103 °C.
Regarding `CC(=N)NC=Cc1ccc([N+](=O)[O-])cc1`, the melting point is 142 to 143 °C.
`COC(=O)C[C@H](Cc1ccc(-c2ccccc2)cc1)NCP(=O)(OC)OC` came in with a melting point of 67 °C.
Regarding `CC(C)(C)OC(=O)NCC(Cl)c1ccccc1` (stereo not drawn), the melting point was in the range of 57 to 59 °C.
The result for `COc1cc(CO)c(CO)cc1OCCCl` reads 93 to 94 °C; that for `CC1(C)OC(=O)Nc2ccc(-c3ccc(C#N)[nH]3)cc21`, 241 to 242 °C.
Take `COC(=O)C(C)(C)c1ccc(OCCNC(=O)C2Cc3ccccc3N2S(=O)(=O)c2ccc(-c3cc(C(F)(F)F)ccc3Cl)cc2)cc1` (stereo not drawn): the melting point was 66 to 72 °C.
Regarding `O=C1NC(=O)c2c1c(-c1ccccc1Cl)cc1c2c2cc(O)ccc2n1CCC(O)CO` (stereo not drawn), the melting point fell in the range of 263 to 267 °C.
In the case of `CC(C)(C)n1cc(C(=O)O)c(=O)c2cc(F)c(N3CCNCC3)nc21`, the melting point was above 270 °C.
